Source: ChEMBL document CHEMBL4610123, “Structure-Based Drug Discovery of N-((R)-3-(7-Methyl-1H-indazol-5-yl)-1-oxo-1-(((S)-1-oxo-3-(piperidin-4-yl)-1-(4-(pyridin-4-yl)piperazin-1-yl)propan-2-yl)amino)propan-2-yl)-2'-oxo-1',2'-dihydrospiro[piperidine-4,4'-pyrido[2,3-d][1,3]oxazine]-1-carboxamide (HTL22562): A Calcitonin Gene-Related …” (J Med Chem, 2020)
Converted amounts (≈) assume the structure as drawn.

Key:
[1] = biological target: Calcitonin-gene-related peptide receptor, CALCRL/RAMP1 (Homo sapiens, UniProt O60894+Q16602); assay: Displacement of [3H]telcagepant from recombinant human CLR/RAMP1 expressed in Sf21 insect cell membranes measured after 60 mins by microbeta scintillation counting method
Sequence of Calcitonin-gene-related peptide receptor, CALCRL/RAMP1 (O60894 whole entry): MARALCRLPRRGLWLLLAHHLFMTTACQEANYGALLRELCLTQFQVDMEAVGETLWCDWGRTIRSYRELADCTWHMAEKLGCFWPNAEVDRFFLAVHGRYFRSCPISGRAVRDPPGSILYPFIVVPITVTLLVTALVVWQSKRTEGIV
Sequence of Calcitonin-gene-related peptide receptor, CALCRL/RAMP1 (Q16602 whole entry): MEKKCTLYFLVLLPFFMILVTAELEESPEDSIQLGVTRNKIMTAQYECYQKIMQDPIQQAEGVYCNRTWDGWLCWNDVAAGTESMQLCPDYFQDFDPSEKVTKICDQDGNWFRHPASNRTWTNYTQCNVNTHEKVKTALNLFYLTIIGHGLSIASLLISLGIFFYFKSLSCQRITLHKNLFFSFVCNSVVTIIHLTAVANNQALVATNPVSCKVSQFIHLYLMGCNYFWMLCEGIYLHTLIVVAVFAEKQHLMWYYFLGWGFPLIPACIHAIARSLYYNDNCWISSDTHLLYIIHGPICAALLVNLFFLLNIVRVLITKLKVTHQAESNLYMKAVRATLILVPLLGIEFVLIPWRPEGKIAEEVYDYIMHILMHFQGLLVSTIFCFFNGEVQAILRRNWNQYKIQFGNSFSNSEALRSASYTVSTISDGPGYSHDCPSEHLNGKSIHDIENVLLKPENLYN

[2] = biological target: Calcitonin-gene-related peptide receptor; CALCRL/RAMP1 (Rattus norvegicus) (UniProt Q63118+Q9JJ74); assay: Antagonist activity at rat CGRP receptor; type: protein-complex assay
[3] = Stability of the compound in pH 5.5 solution at 50 degC assessed as loss of purity after 1 week; type: physicochemical; conditions: read-out: Drug degradation
[4] = biological target: Amylin receptor AMY1, CALCR/RAMP1 (Homo sapiens) (UniProt P30988+O60894); assay: Antagonist activity at human amylin-1 receptor; type: protein-complex assay
[5] = Protein binding in rat plasma by high-throughput dialysis method; type: ADME, cell-free; conditions: read-out: PPB (converted)
[6] = Solubility of the compound at pH 5.7 using amorphous form of sample; type: physicochemical; conditions: buffer
Cytochrome P450 3A4 = Cytochrome P450 3A4 (Homo sapiens, UniProt P08684); assay: Inhibition of CYP3A4 (unknown origin); type: ADME
Sequence of Cytochrome P450 3A4 (P08684 whole entry): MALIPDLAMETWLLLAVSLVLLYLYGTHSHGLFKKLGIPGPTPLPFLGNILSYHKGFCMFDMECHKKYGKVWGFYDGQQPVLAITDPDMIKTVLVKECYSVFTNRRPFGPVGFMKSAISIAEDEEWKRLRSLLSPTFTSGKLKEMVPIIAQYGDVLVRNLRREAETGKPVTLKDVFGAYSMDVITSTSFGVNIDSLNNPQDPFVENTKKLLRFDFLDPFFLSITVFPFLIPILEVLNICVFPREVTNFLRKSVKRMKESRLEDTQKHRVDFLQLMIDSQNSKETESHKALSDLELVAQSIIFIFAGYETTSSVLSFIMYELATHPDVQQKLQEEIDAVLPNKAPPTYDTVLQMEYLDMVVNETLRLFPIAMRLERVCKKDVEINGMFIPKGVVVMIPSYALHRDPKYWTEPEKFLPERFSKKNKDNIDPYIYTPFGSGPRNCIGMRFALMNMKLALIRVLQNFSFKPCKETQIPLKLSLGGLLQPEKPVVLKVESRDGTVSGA

[7] = Genotoxicity in Salmonella typhimurium TA1535 by mini AMES test; type: toxicity; conditions: salmonella enterica subsp. enterica serovar typhimurium
[8] = Tmax in rat at 1 mg/kg, sc; type: ADME, organism-based; conditions: in vivo
[9] = Half life in rat at 1 mg/kg, sc; type: ADME, organism-based; conditions: in vivo
[10] = AUC (infinity) in cynomolgus monkey at 0.5 mg/kg, sc; type: ADME, organism-based, Macaca fascicularis; parameters: dose 0.5 mg/kg, route subcutaneous, time infinity; conditions: in vivo
[11] = Oral bioavailability in cynomolgus monkey at 0.5 mg/kg; type: ADME, organism-based, Macaca fascicularis; conditions: in vivo

Cc1cc(C[C@@H](NC(=O)N2CCC3(CC2)OC(=O)Nc2ncccc23)C(=O)N[C@@H](CC2CCNCC2)C(=O)N2CCN(c3ccncc3)CC2)cc2cn[nH]c12 [HTL-0022562] showed a Ki [1] of 0.0316 nM, a pKb [2] of under 7 and a degraded at 168 h [3] of 0.8%. It also gave a pKb [4] of under 6.3, a fraction unbound [5] of 0.59 and a solubility [6] of 115 mg/mL (≈ 151 mM). The IC50 (Cytochrome P450 3A4) was over 50.1 µM, the Activity [7] was “Non-Toxic” and the Tmax [8] was 42 min. The half-life [9] was 156 min, the AUC(0-inf) [10] was 4210 ng·h/mL and the bioavailability [11] was 117%.
